Measurements published in patent US11046691B1 (IDEAYA BIOSCIENCES, INC., priority 2018, dated 2021).

What follows are compounds tested against hMAT2A (Homo sapiens (Human), UniProt P31153) (assay: Phosphate Sensor Fluorescence Assay (MAT2A enzyme inhibition)). Conditions: L-methionine 500 uM, ATP 500 uM, class symbols.
Assay type: biochemical
Procedure, shortened: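 Recombinant MAT2A preincubated 15 min at room temperature with compound, then reacted 1 h at room temperature with 500 uM L-methionine and 500 uM ATP in Tris pH 7.5 buffer containing PNP/7-MEG.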

Chain of hMAT2A (P31153 whole entry): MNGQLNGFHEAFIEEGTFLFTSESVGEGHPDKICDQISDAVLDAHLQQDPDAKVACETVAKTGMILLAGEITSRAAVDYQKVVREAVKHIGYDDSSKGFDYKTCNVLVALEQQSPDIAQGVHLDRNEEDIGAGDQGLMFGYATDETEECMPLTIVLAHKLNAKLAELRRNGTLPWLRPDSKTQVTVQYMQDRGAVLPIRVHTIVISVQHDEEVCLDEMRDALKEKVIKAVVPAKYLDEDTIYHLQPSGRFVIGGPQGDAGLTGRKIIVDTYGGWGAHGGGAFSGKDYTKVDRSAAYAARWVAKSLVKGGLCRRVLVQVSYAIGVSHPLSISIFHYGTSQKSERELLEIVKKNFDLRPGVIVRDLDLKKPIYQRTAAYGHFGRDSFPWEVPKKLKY

Q: With CO[C@H]1C[C@H](Nc2nc(=O)n(-c3ccccc3Cl)c3nc(C(F)(F)F)ccc23)C1 [Example 301] as the compound, how does the IC50 read?
A: < 200 nM

Q: How did the IC50 turn out when CNc1nc(=O)n(-c2ccccc2Cl)c2cc(C(F)(F)F)c(Br)cc12 [Example 302, 6-bromo-1-(2-chlorophenyl)-4-(methylamino)-7-(trifluoromethyl)-quinazolin-2(1H)-one] was run?
A: < 200 nM

Q: With CNc1nc(=O)n(-c2ccccc2)c2cc(C(F)(F)F)c(Br)cc12 [Example 303, 6-bromo-4-(methylamino)-1-phenyl-7-(trifluoromethyl)quinazolin-2(1H)-one] as the compound, how does the IC50 read?
A: < 200 nM

Q: For CNc1nc(=O)n(-c2ccccc2Cl)c2cc(C(F)(F)F)c(F)cc12 [Example 304, 1-(2-chlorophenyl)-6-fluoro-4-(methyl-amino)-7-(trifluoromethyl)hydro-quinazolin-2-one], which IC50 is on record?
A: < 200 nM

Q: With CN(C)c1nc(=O)n(-c2ccc3[nH]cnc3c2)c2cc(Cl)ccc12 [Example 306, 1-benzimidazol-5-yl-4-(dimethylamino)-7-chlorohydroquinazolin-2-one] as the compound, how does the IC50 read?
A: < 200 nM

Q: CNc1nc(=O)n(-c2ccc3[nH]cnc3c2)c2cc(Cl)ccc12 [Example 307, 1-benzimidazol-5-yl-7-chloro-4-(methyl-amino)hydroquinazolin-2-one] was tested. Which IC50 did it give?
A: < 200 nM

Q: For O=c1nc(NC2CC2)c2ccc(C(F)(F)F)nc2n1-c1ccccc1Cl [Example 308, 1-(2-chlorophenyl)-4-(cyclopropyl-amino)-7-(trifluoromethyl)pyrido[2,3-d]pyrimidin-2(1H)-one], which IC50 is on record?
A: < 200 nM

Q: For CNc1nc(=O)n(-c2ncccn2)c2cc(C3CC3)ccc12 [Example 309, 7-cyclopropyl-4-(methylamino)-1-pyrimidin-2-ylhydroquinazolin-2-one], which IC50 is on record?
A: 1000 to 10000 nM

Q: With CNc1nc(=O)n(-c2ccc(F)c(O)c2)c2cc(Cl)ccc12 [Example 310, 7-chloro-1-(4-fluoro-3-hydroxyphenyl)-4-(methylamino)hydroquinazolin-2-one] as the compound, how does the IC50 read?
A: < 200 nM

Q: For CNc1nc(=O)n(-c2ccncc2Cl)c2nc(C(F)(F)F)ccc12 [Example 312], which IC50 is on record?
A: < 200 nM

Q: How did the IC50 turn out when CNc1nc(=O)n(-c2ccncc2)c2nc(C(F)(F)F)ccc12 [Example 313] was run?
A: 500 to 1000 nM

Q: Which IC50 does the source give for CNc1nc(=O)n(-c2ccc(C)nc2)c2nc(C(F)(F)F)ccc12 [Example 314] here?
A: < 200 nM

Q: For O=c1nc(N2CC(F)C2)c2ccc(C(F)(F)F)nc2n1-c1ccccc1Cl [Example 315, 1-(2-chlorophenyl)-4-(3-fluoroazetidin-1-yl)-7-(trifluoromethyl)pyrido[2,3-d]pyrimidin-2(1H)-one], which IC50 is on record?
A: < 200 nM

Q: Which IC50 does the source give for O=c1nc(NC2CC3(C2)CS(=O)(=O)C3)c2ccc(C(F)(F)F)nc2n1-c1ccccc1Cl [Example 316, 1-(2-chlorophenyl)-4-((2,2-dioxido-2-thiaspiro[3.3]heptan-6-yl)amino)-7-(trifluoromethyl)pyrido[2,3-d]pyrimidin-2(1H)-one] here?
A: 200 to 500 nM

Q: COCCNc1nc(=O)n(-c2ccccc2Cl)c2nc(C(F)(F)F)ccc12 [Example 317, 1-(2-chlorophenyl)-4-[(2-methoxyethyl)-amino]-7-(trifluoromethyl)pyrido[2,3-d]-pyrimidin-2(1H)-one] was tested. Which IC50 did it give?
A: < 200 nM

Q: How did the IC50 turn out when N#C[C@H]1C[C@@H](Nc2nc(=O)n(-c3ccccc3Cl)c3nc(C(F)(F)F)ccc23)C1 [Example 318, (1s,3s)-3-((1-(2-chlorophenyl)-2-oxo-7-(trifluoromethyl)-1,2-dihydropyrido[2,3-d]pyrimidin-4-yl)amino)cyclobutane-1-carbonitrile] was run?
A: < 200 nM

Q: Which IC50 does the source give for CC1(Nc2nc(=O)n(-c3ccccc3Cl)c3nc(C(F)(F)F)ccc23)CCC1 [Example 319] here?
A: < 200 nM

Q: O=c1nc(NC2CCC2)c2ccc(C(F)(F)F)nc2n1-c1ccccc1Cl [Example 320, 1-(2-chlorophenyl)-4-(cyclobutylamino)-7-(trifluoromethyl)pyrido[2,3-d]-pyrimidin-2(1H)-one] was tested. Which IC50 did it give?
A: < 200 nM

Q: How did the IC50 turn out when O=c1nc(N[C@H]2C[C@@H](O)C2)c2ccc(C(F)(F)F)nc2n1-c1ccccc1Cl [Example 321] was run?
A: < 200 nM

Q: For O=c1nc(NC2(CO)CC2)c2ccc(C(F)(F)F)nc2n1-c1ccccc1Cl [Example 322, 1-(2-chlorophenyl)-4-{[(hydroxy-methyl)cyclopropyl]amino}-7-(trifluoro-methyl)-pyrido[2,3-d]pyrimidin-2(1H)-one], which IC50 is on record?
A: < 200 nM

Q: For O=c1nc(NCC(F)F)c2ccc(C(F)(F)F)cc2n1-c1cccnc1 [Example 325, 4-[(2,2-difluoroethyl)amino]-1-(pyridin-3-yl)-7-(trifluoromethyl)hydro-quinazolin-2-one], which IC50 is on record?
A: < 200 nM

Q: With Nc1nc(=O)n(-c2cccnc2)c2cc(C(F)(F)F)ccc12 [Example 327, 4-amino-1-(pyridin-3-yl)-7-(trifluoro-methyl)hydroquinazolin-2-one] as the compound, how does the IC50 read?
A: < 200 nM

Q: Which IC50 does the source give for CNc1nc(=O)n(-c2ccc3[nH]ncc3c2)c2cc(Cl)ccc12 [Example 328, 1-(1H-indazol-5-yl)-7-chloro-4-(methyl-amino)hydroquinazolin-2-one] here?
A: < 200 nM

Q: How did the IC50 turn out when CNc1nc(=O)n(-c2ccccc2C)c2cc(Cl)cc(OC)c12 [Example 329, 7-chloro-5-methoxy-4-(methylamino)-1-(2-methylphenyl)hydroquinazolin-2-one] was run?
A: < 200 nM

Q: For CNc1nc(=O)n(-c2cccc(O)c2F)c2cc(Cl)ccc12 [Example 333, 7-chloro-1-(2-fluoro-3-hydroxyphenyl)-4-(methylamino)quinazolin-2(1H)-one], which IC50 is on record?
A: < 200 nM

Q: With O=c1nc(N[C@H]2C[C@H](O)C2)c2ccc(C(F)(F)F)nc2n1-c1ccccc1Cl [Example 334, 1-(2-chlorophenyl)-4-(((1r,3r)-3-hydroxycyc1obutyl)amino)-7-(trifluoro-methyl)pyrido[2,3-d]pyrimidin-2(1H)-one] as the compound, how does the IC50 read?
A: < 200 nM

Q: How did the IC50 turn out when [2H]C([2H])([2H])N(c1nc(=O)n(-c2ccccc2Cl)c2nc(C(F)(F)F)ccc12)C([2H])([2H])[2H] [Example 339, 4-(bis(methyl-d3)amino)-1-(2-chloro-phenyl)-7-(trifluoromethyl)-pyrido[2,3-d]pyrimidin-2(1H)-one] was run?
A: < 200 nM

Q: With O=c1[nH]c(=O)n(-c2ccc3[nH]cnc3c2)c2cc(Cl)ccc12 [Example 340, 1-(1H-benzo[d]imidazol-5-yl)-7-chloro-quinazoline-2,4(1H,3H)-dione] as the compound, how does the IC50 read?
A: 200 to 500 nM

Q: With CNc1nc(=O)n(-c2cccnc2)c2cc(C(F)(F)F)ccc12 [Example 341, 4-(methylamino)-1-(pyridin-3-yl)-7-(trifluoromethyl)hydroquinazolin-2-one] as the compound, how does the IC50 read?
A: < 200 nM

Q: How did the IC50 turn out when C[C@@H]1CCCN1c1nc(=O)n(-c2ccccc2)c2nc(C(F)(F)F)ccc12 [Example 344, 4-((2R)-2-methylpyrrolidin-1-yl)-1-phenyl-7-(trifluoromethyl)pyrido[2,3-d]-pyrimidin-2(1H)-one] was run?
A: < 200 nM

Q: For C[C@H]1CCCN1c1nc(=O)n(-c2ccccc2)c2nc(C(F)(F)F)ccc12 [Example 345, 4-((2S)-2-methylpyrrolidin-1-yl)-1-phenyl-7-(trifluoromethyl)pyrido[2,3-d]-pyrimidin-2(1H)-one], which IC50 is on record?
A: < 200 nM

Q: With O=c1nc(N2CCSC2)c2ccc(C(F)(F)F)nc2n1-c1ccccc1 [Example 346, 1-phenyl-4-(1,3-thiazolidin-3-yl)-7-(trifluoromethyl) pyrido[2,3-d]-pyrimidin-2(1H)-one] as the compound, how does the IC50 read?
A: < 200 nM

Q: How did the IC50 turn out when [2H]C([2H])([2H])Nc1nc(=O)n(-c2ccccc2Cl)c2cc(Cl)ccc12 [Example 347, 7-chloro-1-(2-chlorophenyl)-4-((methyl-d3)amino)quinazolin-2(1H)-one] was run?
A: < 200 nM

Q: CNc1nc(=O)n(-c2ccccc2)c2cc(Cl)cc(OCC3CC3)c12 [Example 348, 7-chloro-5-(cyclopropylmethoxy)-4-(methylamino)-1-phenylhydro-quinazolin-2-one] was tested. Which IC50 did it give?
A: < 200 nM

Q: Which IC50 does the source give for CNc1nc(=O)n(-c2ccccc2)c2cc(Cl)cc(OCC(F)(F)F)c12 [Example 350, 7-chloro-4-(methylamino)-1-phenyl-5-(2,2,2-trifluoroethoxy)hydroquinazolin-2-one] here?
A: < 200 nM

Q: How did the IC50 turn out when CNc1nc(=O)n(-c2ccccc2Br)c2cc(C3CC3)ccc12 [Example 351, 1-(2-bromophenyl)-7-cyclopropyl-4-(methylamino)hydroquinazolin-2-one] was run?
A: < 200 nM

Q: Which IC50 does the source give for CNc1nc(=O)n(-c2ccccc2C)c2cc(C3CC3)ccc12 [Example 352, 7-cyclopropyl-4-(methylamino)-1-(2-methylphenyl)hydroquinazolin-2-one] here?
A: < 200 nM

Q: Which IC50 does the source give for CNc1nc(=O)n(-c2cccc(C3CC3)c2)c2cc(Cl)ccc12 [Example 353, 7-chloro-1-(3-cyclopropylphenyl)-4-(methylamino)hydroquinazolin-2-one] here?
A: < 200 nM

Q: For CNc1nc(=O)n(-c2cccc(C(F)F)c2)c2cc(Cl)ccc12 [Example 355], which IC50 is on record?
A: < 200 nM

Same assay, conditions: L-methionine 500 uM, ATP 500 uM, numeric bound

Q: Which IC50 does the source give for O=c1[nH]c(=O)n(-c2cccc3nc[nH]c23)c2cc(Cl)ccc12 [Example 305, 1-benzimidazol-7-yl-7-chloro-1,3-dihydroquinazoline-2,4-dione] here?
A: > 10000 nM

Q: How did the IC50 turn out when COc1ccc(F)c(-n2c(=O)[nH]c(=O)c3ccc(Cl)cc32)c1 [Example 311, 7-chloro-1-(2-fluoro-5-methoxyphenyl)-quinazoline-2,4(1H,3H)-dione] was run?
A: > 10000 nM

Q: With CNc1nc(=O)n(-c2ccccc2Cl)c2c(Cl)c(C(F)(F)F)ccc12 [Example 342, 8-chloro-1-(2-chlorophenyl)-4-(methylamino)-7-(trifluoromethyl)-hydroquinazolin-2-one] as the compound, how does the IC50 read?
A: > 10000 nM

Q: How did the IC50 turn out when CNc1nc(=O)n(-c2ccccc2)c2c(Cl)c(C(F)(F)F)ccc12 [Example 343, 8-chloro-4-(methylamino)-1-phenyl-7-(trifluoromethyl)hydroquinazolin-2-one] was run?
A: > 10000 nM

Q: CNc1nc(=O)n(-c2ccccc2)c2cc(Cl)cc(OC(C)C)c12 [Example 349, 7-chloro-4-(methylamino)-5-(methyl-ethoxy)-1-phenylhydroquinazolin-2-one] was tested. Which IC50 did it give?
A: > 10000 nM

Q: Which IC50 does the source give for O=c1[nH]c(=O)n(-c2cccc(C(F)F)c2)c2cc(Cl)ccc12 [Example 354, 7-chloro-1-(3-difluoromethylphenyl)-quinazoline-2,4(1H,3H)-dione] here?
A: > 10000 nM
